Source: US20110045083A1, “USE LARCH WOOD FOR TREATING INFLAMMATION” (priority 2007, published 2011)
Values joined by “and” are separate entries in the source; they are usually repeats but may differ in a detail not shown here. Identical values can stand only once. Like-named read-outs stand apart in the source and are kept apart here.

Columns and labels:
[1] = system: IL-6 and TNF-α; test: Sow feeding trial, Postpartum Dysgalactia Syndrome, inflammation markers; type: in vivo; settings: sows, relative to untreated animals at allocation day
Experimental: Principle: Evaluation of the antiinflammatory activity of Larch sawdust in order to reduce the prevalence of Postpartum Dysgalactia Syndrome in sows under field conditions. IL-6 and TNF-α were analyzed as markers of inflammatory stress.
Materials and Methods: Sows with no clinical signs of disease were used from a farm of approximately 900 sows under production. Trial animals were sows of the same genotype (Dalland hybrids), chosen in terms of achieving homogenity regarding parity, bodyweight, previous production parameters (litter size, litter average bodyweight etc.) and previous health status. The farm was selected due to previous history of Post Partum Dysgalactia Syndrome occurrence. The sows were randomly allocated to a control group (n=5), a positive control group (n=5) and a larch sawdust (n=5) group. The whole trial period was 35 days beginning at 7 days prior to farrow until the day of weaning.
1% by weight of larch sawdust was added as an anti-inflammatory ingredient to sow feed (dry period and lactation feed). […] The raw materials were well accepted at an inclusion level of 1% by weight in the diet as it was shown by previous trials performed.
Thus, during the whole trial period the animals were fed as follows:
1. Control group (99% Basic diet and 1% Corn starch) 2. Larch group (99% Basic diet and 1% Larch) 3. Positive control group (99% Basic diet and 1% Corn starch)
Moreover, the animals of the positive control group were injected a single 2 ml dosage of an antiinflammatory drug (meloxicam) at the day of parturition, while the animals of all the other groups were injected with a single 2 ml dose of normal saline at the same day.
Blood samples were collected from all trial animals at allocation day (7 days before farrowing day) and at 24 and 72 hours post farrowing from all sows for inflammation markers evaluation (serum TNF-α, plasma IL-6). Additionally the milk production index for all sows was calculated, while production and health parameters of sows and their litters were recorded.
The cytokines results were expressed as n-fold increase of cytokine expression in relation to untreated animals at allocation day.

[2] = system: 5-LOX mediated LT biosynthesis; test: LT biosynthesis inhibition assay in activated neutrophile granulocytes, LTB4 EIA; type: cell-based, human
Experimental: 1.) LT biosynthesis inhibition assay
The assay was performed as described in [Michael Adams, Olaf Kunert, Ernst Haslinger, Rudolf Bauer: Inhibition of Leukotriene Biosynthesis by Quinolone Alkaloids from the Fruits of Evodia Rutaecarpa; Planta med. 2004 (70): 904-908] with some modifications.
Principle: Activated neutrophile granulocytes with 5-LOX activity are incubated with a defined concentration of test sample and arachidonic acid. After stopping the enzymatic reaction by addition of formic acid and centrifugation to remove cellular fragments, the produced LTB4 is quantified in the supernatant by means of an LTB4 EIA kit.
Isolation of human neutrophile granulocytes: 30 ml of venous human blood from healthy voluntary donors are collected with a Vacutainer™ (BD, Plymouth, UK) system containing a 0.219 M pre-analytical citric acid solution. The blood is immediately transferred to a falcon tube containing 20 ml of sedimentation solution (1% NaCl, 6% dextran T-500) and left to separate for 60 min at 4° C. While most of the dense erythrocytes sink into the dextran layer, the lighter blood fractions remain in the upper layer which is then removed and centrifuged at 1600 rpm (4° C., 10 min) to concentrate the leukocytes. The plasma supernatant is discarded, the pellet is resuspended in 10 ml of a wash buffer (10% CaCl2.2H2O p.a.; 0.1% anhydrous d-glucose; 0.2% MgCl2.6H2O; 0.04% KCl; 1.75% TRIS p.a.; with the pH adjusted to 7.6 with 1N HCl). After centrifugation at 1400 rpm (4° C., 10 min) and removal of the supernatant the resulting pellet is resuspended in 10 ml of a hypotonic lysis buffer (0.17% NH4Cl; 0.2% TRIS; pH 7.2) and gently shaken for 5 min at room temperature to destroy remaining erythrocytes. The suspension is submitted to another centrifugation at 1400 rpm (4° C., 5 min). The pellet is resuspended in 10 ml of wash buffer and then centrifuged at 1400 rpm (4° C., 15 min). The resulting pellet which now mainly contains neutrophile granulocytes is resuspended in 2 ml of TRIS buffer (1.75% TRIS p.a., 0.9% NaCl, pH 7.4), tested for vitality, quantified and then diluted to a cell concentration of 4500 cells/ml with TRIS buffer.
Cell vitality test: 50 μl of cell suspension and 10 μl of trypan blue solution (0.4%) (Sigma Chemical Co. Steinheim, Germany) are mixed on a glass object carrier and examined with a light microscope at 1000 fold magnification. Dead cells appear larger and darker due to absorption of trypan blue. The vitality of the cells must be >95%.
Determination of cell concentration: 10 μl of granulocyte cell suspension are dyed using 990 μl aqueous TURKS solution (Merck) and quantified in a “Neubauer” chamber (Assistent, Germany).
Sample preparation: samples are dissolved in an appropriate amount of ethanol p.a. to be added to the test mixture resulting in screening concentrations of 50 μM for pure compounds and 20 μg/ml for crude. The commercially available 5-LOX inhibitor zileuton (Sequoia Research Products Ltd., UK) is used as a positive control at a concentration of 10 μM representing its IC50 in this test system.
Incubation procedure: The incubation mixture in a 96-well flat bottom microtitre plate (Bibby Sterilin, Staffordshire, UK) consists of 265 μl leukocyte suspension, with 75.5 μM CaCl2, 0.152 μM […] (ETYA) as an inhibitor of the 12-LOX pathway, 0.642 μM Ca ionophore A23187 and 4.43 μM arachidonic acid, the substrate of the 5-LOX pathway, along with 5 μl of each test solution or 5 μl of EtOH p.a. in control wells. After incubation for 10 min at 37° C. in darkness, the reaction is stopped by addition of 20 μl of 10% formic acid. The microtitre plate is centrifuged for 15 min at 1400 rpm to separate free LTB4 from cellular particles before the supernatant is diluted 40 fold in EIA buffer and applied to a competitive LTB4 EIA kit (Assay Designs Inc.).
LTB4 EIA: The plate is incubated for 2 hours at room temperature on an orbital shaker. […]

[3] = molecular target: 5-lipoxygenase (5-LOX); settings: read-out: 5-LOX inhibitory activity IC50, cited from earlier work

Question: For `Cc1cnc(NC(=O)C2=C(O)c3ccccc3S(=O)(=O)N2C)s1` [Positive controls, meloxicam], which “Relative expression of IL6” value ([1]; 24 hours PP) is on record?
Answer: 1.86 ± 0.92 n fold

Question: And the “Relative expression of TNFα” value ([1]; 24 hours PP)?
Answer: 0.87 ± 0.29 n fold

Question: What about the “Relative expression of IL6” value ([1]; 72 hours PP) of the same compound?
Answer: 1.08 ± 0.78 n fold

Question: And the “Relative expression of TNFα” value ([1]; 72 hours PP)?
Answer: 0.98 ± 0.77 n fold

Question: For `CC(c1cc2ccccc2s1)N(O)C(N)=O` (centres unmarked) [Zileuton, reference compound], which IC50 [2] is on record?
Answer: 5 µM

Question: And the IC50 ([2]; Homo sapiens)?
Answer: 10 µM and 1.2 µg/mL

Question: What does the source list for `CC(C)C1=CC2=CC[C@@H]3[C@](C)(CCC[C@@]3(C)C(=O)O)[C@H]2CC1` [abietic acid]?
Answer: IC50 ([3]; Ulusu et al. 2002, isolated from cones of Abies nordmanniana ssp. equitraojani): 29.5 ± 1.29 µM; IC50 ([3]; known from the art): ~30 µM
